Measurements published in patent publication US8278267B2 (Amylin Pharmaceuticals, LLC, priority 2005, dated 2012).

How the values were obtained:
[1] = Pramlintide on satiation and binge eating (Binge Eating Scale), single-blind placebo-controlled study in obese subjects; type: in vivo, human
Procedure: The ability of the amylin agonist pramlintide to control or influence eating behavior was examined in human subjects. For the assessment, 24 hour-food intake (FI, ad-libitum meals), weight, feelings of hunger and fullness, and binge-eating (Binge Eating Scale, BES) were measured in a single-blind, placebo-controlled study. Obese subjects without eating disorders (50/50% female/male; BMI 35.61±3.98 kg/m^2, mean±SD) were randomized to six weeks of treatment with pramlintide or placebo. Pramlintide (180 μg) was administered subcutaneously three times per day (TID) prior to meals for 6 weeks and no lifestyle intervention was provided (TID evaluable N=59, placebo evaluable N=25). […] A follow-up evaluation of the subjects was performed four weeks after cessation of the treatment. In addition to the measurement of food intake and weight, subjects were also assessed for the feelings of hunger and fullness over a 12-hour observation period on the day before treatment, the first day of treatment, and on Day 43. During the study, subjects were categorized by binge-eating severity as mild, moderate, or severe based on total BES scores.

[2] = Pramlintide on weight and anthropometric parameters, 16-week double-blind placebo-controlled study in obese subjects; type: in vivo, human
Procedure: In a randomized, double-blind, placebo-controlled study, changes in body weight and anthropometric parameters, as well as indicators of glycemic control (e.g., HbA1c), serum lipids and glucose tolerance, were assessed in response to pramlintide administration to obese (BMI≧30 kg/m^2 to ≦50 kg/m^2) non-diabetic individuals and obese individuals with non-insulin treated type 2 diabetes mellitus.

[3] = Adsorption onto glass container in liquid form; type: physicochemical
[4] = human trials; cited from earlier work
[5] = Combination therapy amylin + sibutramine in DIO prone rats; type: in vivo, rat; conditions: two weeks; for change in body weight (vehicle-corrected): amylin 100 μg/kg/day and/or sibutramine 3 mg/kg/day by mini-pumps; for fat mass / lean (protein) mass: amylin 100 μg/kg/day and/or sibutramine 3 mg/kg/day
Procedure: In-bred DIO prone rats were obtained from Charles Rivers Labs. These rats were developed from a line of Crl:CD®(SD)BR rats that are prone to become obese on a diet relatively high in fat and energy (Levin, 1997). The rats were housed individually in shoebox cages at 22° C. in a 12/12-hour light dark cycle. […] At the end of the fattening period they typically have a mean body weight of 500 g. Rats were then divided into treatment groups and implanted with two subcutaneous mini-pumps (Durect Corp).

[6] = Effect of amylin on sucrose food preference, sugar withdrawal and restraint stress; type: in vivo, rat
Procedure: The ability of amylin to modify food preference was examined in an animal model. Male, Sprague-Dawley® rats were submitted to a sugar withdrawal paradigm and observed for effects of stress on sugar intake. […] All rats were provided with ad libitum access to standard chow, water, and a 30% sucrose drink. Subsequently, the sucrose drink was removed and half of the rats were subjected, daily, to 3 h of mild restraint stress for 3 successive days. After 3 days, sucrose was provided and its daily average consumption was measured over 4 days. Chow intake was also measured over the 3 days of withdrawal and stress and over the following 4 days when sucrose was re-introduced. No restraint was applied during the 4 days of sucrose re-introduction. Results of this assay are shown in FIG. 1(A-D) where * is P<0.05 by ANOVA and Fisher LSD post-hoc analyses.

[7] = Effect of amylin on high fat food preference, 11-week osmotic pump treatment; type: in vivo, rat
Procedure: The ability of amylin to modify food preference was examined in an animal model. […] Animals had access to both low fat chow (6% fat kcal, 54% cornstarch kcal; #7012, Harlan Teklad, Madison, Wis.) and high fat chow (“palatable chow”) (58% fat kcal and 26% sucrose kcal; #D12311, Research Diets, New Brunswick, N.J.). Food intake and body weight were measured weekly. Just prior to treatment, and at the end of treatment, the amount of fat and lean tissue (expressed as g of tissue per 100 g of body weight) was measured via MRI (Echo MRI for rats, EchoMRI, Houston, Tex.).
Energy expenditure was assessed using an Oxymax animal monitoring system (Columbus Instruments, Columbus, Ohio) to measure oxygen consumption and carbon dioxide generation over time. From these measurements, heat (in kcal) was calculated and energy expenditure assessed.

[8] = Effect of amylin on body composition in DIO prone rats, 14 days of treatment then washout; type: in vivo, rat
Procedure: Diet-induced obesity (DIO) in the in the Sprague-Dawley rat is a valuable model for the study of obesity and regulation of energy homeostasis. […] All rats were housed individually in shoebox cages at 22° C. in a 12/12-hour light dark cycle. Amylin was administered by subcutaneous osmotic mini-pump (Durect Corp, Calif.). […] On day 14, mini-pumps were removed and replaced with pumps containing vehicle. For body composition, rats were scanned in a specialized rodent NMR machine (Echo Medical Systems) prior to drug treatment, and at the conclusion of the experiment, which enabled the calculation of percent changes in fat and lean composition (e.g., % body fat after treatment−% body fat at baseline=change in % body fat).

[9] = e.g., provoking marked hyperlactemia followed by hyperglycemia; cited from earlier work
[10] = cited from earlier work
[11] = CSI (N = 47), Baseline (Day −1)
[12] = TID (N = 59), Baseline (Day −1)
[13] = pramlintide 180 μg s.c. TID, after 6 weeks
[14] = 16 weeks, least squares mean±SE
[15] = after 16 weeks, evaluable population
[16] = at 11 weeks, compared to controls
[17] = day 28, after amylin days 1-14 and vehicle days 15-28
[18] = rat amylin 100 μg/kg/d s.c. mini-pump, days 2-14, vs vehicle controls

## CC[C@H](C)[C@H](NC(=O)[C@@H]1CCCN1C(=O)CNC(=O)[C@H](Cc1ccccc1)NC(=O)[C@H](CC(N)=O)NC(=O)[C@H](CC(N)=O)NC(=O)[C@H](CO)NC(=O)[C@H](CO)NC(=O)[C@H](Cc1c[nH]cn1)NC(=O)[C@@H](NC(=O)[C@H](CC(C)C)NC(=O)[C@H](Cc1ccccc1)NC(=O)[C@H](CC(N)=O)NC(=O)[C@H](C)NC(=O)[C@H](CC(C)C)NC(=O)[C@H](CCCNC(=N)N)NC(=O)[C@H](CCC(N)=O)NC(=O)[C@@H](NC(=O)[C@H](C)NC(=O)[C@@H]1CSSC[C@H](NC(=O)[C@@H](N)CCCCN)C(=O)N[C@@H](CC(N)=O)C(=O)N[C@@H]([C@@H](C)O)C(=O)N[C@@H](C)C(=O)N[C@@H]([C@@H](C)O)C(=O)N1)[C@@H](C)O)C(C)C)C(=O)N[C@@H](CC(C)C)C(=O)N1CCC[C@H]1C(=O)N1CCC[C@H]1C(=O)N[C@H](C(=O)N[C@@H](CC(N)=O)C(=O)N[C@H](C(=O)NCC(=O)N[C@@H](CO)C(=O)N[C@@H](CC(N)=O)C(=O)N[C@H](C(=O)N[C@@H](Cc1ccc(O)cc1)C(N)=O)[C@@H](C)O)C(C)C)[C@@H](C)O [Pramlintide, ^25,28,29Pro-h-amylin]
[1]; CSI 50 μg/h, Day 43
  reduction of mean total caloric intake compared with pooled placebo: ~7%
[1]; CSI 50 μg/h, first day of treatment
  reduction of mean total caloric intake compared with pooled placebo: approximately 22%
[1]; [11]
  subjects with total BES score >17 to <27 (Moderate): (36.2) %
  subjects with total BES score ≦17 (Mild): (51.1) %
  subjects with total BES score ≧27 (Severe): (12.8) %
[1]; CSI (N = 47), Day 42
  subjects with total BES score >17 to <27 (Moderate): (17.0) %
  subjects with total BES score ≦17 (Mild): (74.5) %
  subjects with total BES score ≧27 (Severe): (8.5) %
[1]; CSI (N = 47), Day 72
  subjects with total BES score >17 to <27 (Moderate): (14.9) %
  subjects with total BES score ≦17 (Mild): (63.8) %
  subjects with total BES score ≧27 (Severe): (8.5) %
[1]; [12]
  subjects with total BES score >17 to <27 (Moderate): (23.7) %
  subjects with total BES score ≦17 (Mild): (64.4) %
  subjects with total BES score ≧27 (Severe): (8.5) %
[1]; TID (N = 59), Baseline (Day −1), listed as pramlintide
  subjects with total BES score ≦17 (Mild): 64.4%
[1]; TID (N = 59), Day 42
  subjects with total BES score >17 to <27 (Moderate): (11.9) %
  subjects with total BES score ≦17 (Mild): (83.1) %
  subjects with total BES score ≧27 (Severe): (5.1) %
[1]; TID (N = 59), Day 42, listed as pramlintide
  subjects with total BES score ≦17 (Mild): 83.1%
[1]; TID (N = 59), Day 72
  subjects with total BES score >17 to <27 (Moderate): (13.6) %
  subjects with total BES score ≦17 (Mild): (76.3) %
  subjects with total BES score ≧27 (Severe): (5.1) %
[1]; TID, Day 43
  reduction of mean total caloric intake compared with pooled placebo: ~15%
[1]; TID, first day of treatment
  reduction of mean total caloric intake compared with pooled placebo: approximately 17%
[1]; after 6 weeks
  placebo-corrected reduction from baseline in mean BES score: −45±13%
[1]; after 6 weeks, placebo […]
  proportion of subjects shifting to a lower binge-eating severity category: 24.6%
[1]; four weeks after cessation of treatment
  reductions from baseline in the total BES score after cessation: no longer statistically significant
[1]; [13]
  placebo-corrected reduction from baseline in 24-hour food intake: -489 ± 183 kcal
  placebo-corrected reduction from baseline in weight: −2.2±0.5%
[2]; [14]
  placebo-corrected reduction in hip circumference: 2.69±0.82 cm
  placebo-corrected reduction in waist circumference: 2.691±1.08 cm
[2]; Class I (BMI <35 kg/m^2), n 43, placebo 0%
  percentage of subjects achieving >5% reduction in baseline body weight: 39.5%
[2]; Class II (BMI ≧35 kg/m^2 to <40 kg/m^2), n 25, placebo 0%
  percentage of subjects achieving >5% reduction in baseline body weight: 28.0%
[2]; Class II (BMI ≧40 kg/m^2), n 29, placebo 5.0%
  percentage of subjects achieving >5% reduction in baseline body weight: 20.7%
[2]; [15]
  placebo-corrected mean weight loss: 3.52 kg
  placebo-corrected mean weight loss, of initial body weight: 3.6%
[2]; after 16 weeks, placebo 2%
  subjects who lost ≧5% of body weight: 31%
[3]
  tendency to adsorb onto the glass: does not have a tendency to adsorb onto the glass
[4]
  weight or weight gain: reduce weight or weight gain

## CC(C)CC(N(C)C)C1(c2ccc(Cl)cc2)CCC1 (stereo not drawn) [sibutramine]
[5]
  change in body weight (vehicle-corrected): approximately 5%
  fat mass: Fat mass loss was also evident
  lean (protein) mass: relatively unchanged

## Rat amylin
[6]; rat amylin 300 μg/kg/d by osmotic pump, restraint-stressed rats, 4 days of sucrose re-introduction
  average sucrose to chow consumption ratio (as % of baseline): prevents the increase in the average sucrose to chow consumption ratio
[6]; rat amylin 300 μg/kg/d, stressed and non-stressed rats, vs vehicle treated controls
  sucrose intake: decreases sucrose intake in both stressed and non-stressed conditions
[6]; rat amylin 300 μg/kg/d, treatment group vs control group
  stress-induced decrease in chow intake and total kcals: less pronounced in the treatment group
[7]; [16]
  24 h energy expenditure, dark phase increase: 6.6%
  24 h energy expenditure, light phase increase: 9.7%
[7]; pre- vs post-treatment, MRI, vehicle 3.7±0.9
  fat mass, change in percent of total mass: −3.6±1.0%
[7]; pre- vs post-treatment, MRI, vehicle −0.53±0.21, not significant
  lean tissue, change in percent of total mass: 0.08±0.23%
[7]; rat amylin 300 μg/kg/d, 11 weeks, vehicle 4.3±0.6
  percent total calories from low fat chow (main effect): 12.2±3.2%
[7]; rat amylin 300 μg/kg/d, 11 weeks, vehicle 126±10
  body weight gain: 50 ± 11 g
[7]; rat amylin 300 μg/kg/d, 11 weeks, vehicle 271±42
  calories from low fat chow (main effect): 633 ± 145 kcal
[7]; rat amylin 300 μg/kg/d, 11 weeks, vehicle 6315±111, mean±SEM
  calories from high fat chow over 11 weeks (FIG. 2): 5309 ± 202 kcal
[8]; [17]
  percent of body fat: lower percent of body fat
  percent of lean body mass: higher percent of lean body mass
[8]; [18]
  body weight: significantly decreased
  cumulative food intake: significantly decreased
[5]
  change in body weight (vehicle-corrected): approximately 5%
  fat mass: Fat mass loss was also evident
  lean (protein) mass: increased

## ^18Arg^25,28Pro-h-amylin (KCNTATCATQRLANFLVRSSNNFGPILPSTNVGSNTY)
[9]
  amylin activity in vivo: show amylin activity in vivo
[10]
  solubility and stability characteristics compared to human amylin: more desirable solubility and stability characteristics

## ^25Pro^26Val^28,29Pro-h-amylin (KCNTATCATQRLANFLVHSSNNFGPVLPPTNVGSNTY)
[10]
  solubility and stability characteristics compared to human amylin: more desirable solubility and stability characteristics

## ^28Pro-h-amylin (KCNTATCATQRLANFLVHSSNNFGAILPSTNVGSNTY)
[9]
  amylin activity in vivo: show amylin activity in vivo

## des-^1Lys-h-amylin (CNTATCATQRLANFLVHSSNNFGAILSSTNVGSNTY)
[9]
  amylin activity in vivo: show amylin activity in vivo

## des-^1Lys^18Arg^25,28Pro-h-amylin (CNTATCATQRLANFLVRSSNNFGPILPSTNVGSNTY)
[9]
  amylin activity in vivo: show amylin activity in vivo
